Literature values in EP3297603B1, “CINEOLE-CONTAINING AQUEOUS COMPOSITION FOR NASAL APPLICATION” (Maria Clementine Martin Klosterfrau Vertriebsgesellschaft …, priority 2015, dated 2017).

Conditions: general property, reference to RÖMPP Chemielexikon

Löslichkeit in Wasser: in Wasser unlöslich
Structure (SMILES): CC12CCC(CC1)C(C)(C)O2 [1,8-Cineol, 1,3,3-Trimethyl-2-oxabicyclo[2.2.2]octan]
